Test results taken from patent US9908886B2 (Agency for Science, Technology and Research, priority 2012, dated 2018).
Read-outs that look alike come from different tables or passages of the source.

Key:
[1] = target: MNK2 (Homo sapiens (Human), UniProt Q9HBH9); test: In vitro MNK kinase assay (Caliper LabChip mobility shift); format: biochemical
[2] = target: MNK1 (Homo sapiens, UniProt Q9BUB5); test: as above; format: biochemical
[3] = enzymatic, 250 μM ATP, read-out: IC50 Mnk2
[4] = enzymatic, 1.2 mM ATP, read-out: IC50 Mnk1

Sequence of MNK2 (Q9HBH9 84-388): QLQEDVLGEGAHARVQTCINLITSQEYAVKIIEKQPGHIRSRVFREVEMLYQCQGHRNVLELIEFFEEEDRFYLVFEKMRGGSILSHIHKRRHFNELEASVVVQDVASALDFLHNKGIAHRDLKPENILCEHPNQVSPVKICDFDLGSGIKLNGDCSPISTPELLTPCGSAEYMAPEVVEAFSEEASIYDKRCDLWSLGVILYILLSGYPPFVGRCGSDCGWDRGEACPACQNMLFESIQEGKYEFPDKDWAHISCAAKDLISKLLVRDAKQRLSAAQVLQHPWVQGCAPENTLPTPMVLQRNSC

Compound | IC50 [1, 3] [nM] | IC50 [2, 4] [nM] | IC50 [1] [nM] | IC50 [2] [nM]
CC1(N2CCOCC2)CCN(C(=O)c2ccc(-c3ccc4ncc(-c5ccc(C#N)cc5)n4c3)cc2)CC1 [Example 163, 4-(6-(4-(4-methyl-4-morpholinopiperidine-1-carbonyl)phenyl)imidazo[1,2-a]pyridin-3-yl)benzonitrile] | < 100 | < 100 |  | 
N#Cc1ccc(-c2cnc3cnc(-c4ccc(C(=O)N5CCC(N)CC5)c(Cl)c4)cn23)cc1 [Example 31, 4-(6-(4-(4-aminopiperidine-1-carbonyl)-3-chlorophenyl)imidazo[1,2-a]pyrazin-3-yl)benzonitrile] | < 1000 | < 1000 |  | 
Cc1cc(-c2cn3c(-c4ccc(C#N)cc4)cnc3cn2)ccc1C(=O)N1CCC(C)(N)CC1 [Example 28, 4-(6-(4-(4-amino-4-methylpiperidine-1-carbonyl)-3-methylphenyl)imidazo[1,2-a]pyrazin-3-yl)benzonitrile] | < 100 | < 100 |  | 
CN1CCN(C(=O)c2ccc(-c3ccc4ncc(-c5ccc(C#N)cc5)n4n3)cc2Cl)CC1 [Example 72, 4-(6-(3-chloro-4-(4-methylpiperazine-1-carbonyl)phenyl)imidazo[1,2-b]pyridazin-3-yl)benzonitrile] | < 100 | < 100 |  | 
CCN1CCN(C(=O)c2ccc(-c3ccc4ncc(-c5ccc(C#N)cc5)n4c3)cc2)CC1 [Example 98, 4-(6-(4-(4-ethylpiperazine-1-carbonyl)phenyl)imidazo[1,2-a]pyridin-3-yl)benzonitrile] | < 100 | < 100 |  | 
CC(=O)Nc1cc(-c2ccc3ncc(-c4ccc(C#N)cc4)n3c2)ccc1C(=O)N1CCN(C)CC1 [Example 149, N-(5-(3-(4-cyanophenyl)imidazo[1,2-a]pyridin-6-yl)-2-(4-methylpiperazine-1-carbonyl)phenyl)acetamide] | < 1000 | < 1000 |  | 
O=C1Cc2cc(-c3cnc4ccc(-c5ccc(C(=O)N6CCC(N7CCOCC7)CC6)cc5)nn34)ccc2N1 [Example 94, 5-(6-(4-(4-morpholinopiperidine-1-carbonyl)phenyl)imidazo[1,2-b]pyridazin-3-yl)indolin-2-one] | < 100 | < 100 |  | 
COc1cc(-c2cn3c(-c4ccc(C#N)cc4)cnc3cn2)ccc1C(=O)N1CCN(C)CC1 [Example 39, 4-(6-(3-methoxy-4-(4-methylpiperazine-1-carbonyl)phenyl)imidazo[1,2-a]pyrazin-3-yl)benzonitrile] | < 1000 | < 1000 |  | 
N#Cc1ccc(-c2cnc3cnc(-c4ccc(C(=O)N5CCOCC5)cc4)cn23)cc1 [Example 7, 4-(6-(4-(morpholine-4-carbonyl)phenyl)imidazo[1,2-a]pyrazin-3-yl)benzonitrile] | < 1000 | < 1000 |  | 
CCN(CC)C1(C)CCN(C(=O)c2ccc(-c3ccc4ncc(-c5ccc(C#N)cc5)n4c3)cc2)CC1 [Example 100, 4-(6-(4-(4-(diethylamino)-4-methylpiperidine-1-carbonyl)phenyl)imidazo[1,2-a]pyridin-3-yl)benzonitrile] | < 100 | < 100 |  | 
CCN1CCN(C(=O)c2ccc(-c3cn4c(-c5ccc(Cl)cc5)cnc4cn3)cc2)CC1 [Example 45, (4-(3-(4-chlorophenyl)imidazo[1,2-a]pyrazin-6-yl)phenyl)(4-ethylpiperazin-1-yl)methanone] | < 1000 | < 1000 |  | 
CN(CC(=O)N1CCOCC1)C(=O)c1ccc(-c2ccc3ncc(-c4ccc(C#N)cc4)n3c2)cc1 [Example 101, 4-(3-(4-cyanophenyl)imidazo[1,2-a]pyridin-6-yl)-N-methyl-N-(2-morpholino-2-oxoethyl)benzamide] | < 100 | < 100 |  | 
N#Cc1ccc(-c2cnc3cnc(-c4ccc(C(=O)N5CCC6(CC5)COC6)cc4)cn23)cc1 [Example 24, 4-(6-(4-(2-oxa-7-azaspiro[3.5]nonane-7-carbonyl)phenyl)imidazo[1,2-a]pyrazin-3-yl)benzonitrile] | < 1000 | < 1000 |  | 
CN1CCC(C2CCN(C(=O)c3ccc(-c4ccc5ncc(-c6ccc(C#N)cc6)n5c4)cc3)CC2)CC1 [Example 105, 4-(6-(4-(1′-methyl-4,4′-bipiperidine-1-carbonyl)phenyl)imidazo[1,2-a]pyridin-3-yl)benzonitrile] | < 100 | < 100 |  | 
CCC1(NC(C)=O)CCN(C(=O)c2ccc(-c3ccc4ncc(-c5ccc(C#N)cc5)n4n3)cc2)CC1 [Example 66, N-(1-(4-(3-(4-cyanophenyl)imidazo[1,2-b]pyridazin-6-yl)benzoyl)-4-ethylpiperidin-4-yl)acetamide] | < 100 | < 100 |  | 
CC(C)N1CCN(C(=O)c2ccc(-c3ccc4ncc(-c5ccc(C#N)cc5)n4n3)cc2)CC1 [Example 59, 4-(6-(4-(4-isopropylpiperazine-1-carbonyl)phenyl)imidazo[1,2-b]pyridazin-3-yl)benzonitrile] | < 100 | < 100 |  | 
N#Cc1ccc(-c2cnn3ccc(-c4ccc(C(=O)N5CCOCC5)c(O)c4)nc23)cc1 [Example 187, 4-(5-(3-hydroxy-4-(morpholine-4-carbonyl)phenyl)pyrazolo[1,5-a]pyrimidin-3-yl)benzonitrile] | < 100 | < 100 |  | 

Compound | IC50 [1, 3] [nM] | IC50 [2, 4] [nM] | IC50 [1] [nM] | IC50 [2] [nM]
CN1CCN(C(=O)c2ccc(-c3ccc4ncc(-c5ccc(C#N)cc5)n4n3)cc2)CC1=O [Example 69, 4-(6-(4-(4-methyl-3-oxopiperazine-1-carbonyl)phenyl)imidazo[1,2-b]pyridazin-3-yl)benzonitrile] | < 100 | < 100 |  | 
N#Cc1ccc(-c2cnc3ccc(-c4ccc(C(=O)N5CCC(CN)CC5)cc4)cn23)cc1 [Example 123, 4-(6-(4-(4-(aminomethyl)piperidine-1-carbonyl)phenyl)imidazo[1,2-a]pyridin-3-yl)benzonitrile] | < 100 | < 100 |  | 
CN1CCCCC12CCN(C(=O)c1ccc(-c3ccc4ncc(-c5ccc(C#N)cc5)n4c3)cc1)CC2 [Example 119, 4-(6-(4-(1-methyl-1,9-diazaspiro[5.5]undecane-9-carbonyl)phenyl)imidazo[1,2-a]pyridin-3-yl)benzonitrile] | < 100 | < 100 |  | 
CN1CCCN(C(=O)c2ccc(-c3cn4c(-c5ccc(C#N)cc5)cnc4cn3)cc2)CC1 [Example 17, 4-(6-(4-(4-methyl-1,4-diazepane-1-carbonyl)phenyl)imidazo[1,2-a]pyrazin-3-yl)benzonitrile] | < 1000 | < 1000 |  | 
N#Cc1ccc(-c2cnn3ccc(-c4ccc(C(=O)N5CCCOCC5)cc4)nc23)cc1 [Example 181, 4-(5-(4-(1,4-oxazepane-4-carbonyl)phenyl)pyrazolo[1,5-a]pyrimidin-3-yl)benzonitrile] | < 100 | < 100 |  | 
N#Cc1ccc(-c2cnc3ccc(-c4ccc(C(=O)N5CCCNCC5)cc4)cn23)cc1 [Example 107, 4-(6-(4-(1,4-diazepane-1-carbonyl)phenyl)imidazo[1,2-a]pyridin-3-yl)benzonitrile] | < 100 | < 100 |  | 
NC1CCN(C(=O)c2ccc(-c3ccc4ncc(-c5ccc(Cl)cc5)n4c3)cc2)CC1 [Example 174, (4-aminopiperidin-1-yl)(4-(3-(4-chlorophenyl)imidazo[1,2-a]pyridin-6-yl)phenyl)methanone] | < 100 | < 100 |  | 
CN1CCN(C(=O)c2ccc(-c3ccc4ncc(-c5ccc(C#N)cc5)n4c3)cc2OC(F)(F)F)CC1 [Example 157] | < 1000 | < 1000 |  | 
CC(C)(C)N1CCN(C(=O)c2ccc(-c3cn4c(-c5ccc(C(N)=O)cc5)cnc4cn3)cc2)CC1 [Example 5, 4-(6-(4-(4-tert-butylpiperazine-1-carbonyl)phenyl)imidazo[1,2-a]pyrazin-3-yl)benzamide] | < 100 | < 100 |  | 
CN(C)C1CCN(C(=O)c2ccc(-c3cn4c(-c5ccc(C#N)cc5)cnc4cn3)cc2)CC1 [Example 21, 4-(6-(4-(4-(dimethylamino)piperidine-1-carbonyl)phenyl)imidazo[1,2-a]pyrazin-3-yl)benzonitrile] | < 1000 | < 1000 |  | 
CC1(N)CCN(C(=O)c2ccc(-c3ccc4ncc(-c5ccc(Cl)cc5)n4c3)cc2)CC1 [Example 173, (4-amino-4-methylpiperidin-1-yl)(4-(3-(4-chlorophenyl)imidazo[1,2-a]pyridin-6-yl)phenyl)methanone] | < 100 | < 100 |  | 
CN1CCN(C(=O)c2ccc(-c3ccc4ncc(-c5ccc6c(c5)CC(=O)N6)n4n3)cc2)CC1 [Example 85, 5-(6-(4-(4-methylpiperazine-1-carbonyl)phenyl)imidazo[1,2-b]pyridazin-3-yl)indolin-2-one] | < 100 | < 100 |  | 
N#Cc1ccc(-c2cnc3cnc(-c4ccc(C(=O)N5CCN(C6CC6)CC5)cc4)cn23)cc1 [Example 14, 4-(6-(4-(4-cyclopropylpiperazine-1-carbonyl)phenyl)imidazo[1,2-a]pyrazin-3-yl)benzonitrile] | < 1000 | < 1000 |  | 
N#Cc1ccc(-c2cnn3ccc(-c4ccc(C(=O)N5CCOCC5)cc4)nc23)cc1 [Example 185, 4-(5-(4-(morpholine-4-carbonyl)phenyl)pyrazolo[1,5-a]pyrimidin-3-yl)benzonitrile] | < 100 | < 100 |  | 
N#Cc1ccc(-n2cnc3ccc(-c4ccc(C(=O)N5CCOCC5)cc4)cc32)cc1 [Example 190, 4-(6-(4-(morpholine-4-carbonyl)phenyl)-1H-benzo[d]imidazol-1-yl)benzonitrile] |  |  | < 1000 | < 1000
NC(=O)c1ccc(-c2cn3c(-c4ccc(Cl)cc4)cnc3cn2)cc1 [Example 42, 4-(3-(4-chlorophenyl)imidazo[1,2-a]pyrazin-6-yl)benzamide] | < 1000 | < 1000 |  | 
COC1(C)CCN(C(=O)c2ccc(-c3ccc4ncc(-c5ccc(C#N)cc5)n4c3)cc2)CC1 [Example 172, 4-(6-(4-(4-methoxy-4-methylpiperidine-1-carbonyl)phenyl)imidazo[1,2-a]pyridin-3-yl)benzonitrile] | < 100 | < 100 |  | 
